US20230406885A1, “CYCLIC PEPTIDES FOR TRAPPING INTERLEUKIN-1 BETA” (MERCK SHARP & DOHME LLC, priority 2022, published 2023)
*1 amine or outer side, *2 acyl side, *3 side chain or, on linkers, in order; H or OH if unused. Where a SMILES comes first, the peptide text is derived from it. [ ]: non-standard residue; d: D form. Phe(4-(4-Ac-piperazinyl)) = CC(=O)N1CCN(c2ccc(C[C@H](N)C(=O)O)cc2)CC1; Trp(4-Cl)(βS-Me) = C[C@@H](c1c[nH]c2cccc(Cl)c12)[C@H](N)C(=O)O; Ala(piperidin-4-yl) = O=C([C@H](CC1CCN([*:3])CC1)N[*:1])[*:2]; Trp(βS-Me,4-F) = C[C@@H](c1c[nH]c2cccc(F)c12)[C@H](N)C(=O)O; Bip(4'-COOH) = N[C@@H](Cc1ccc(-c2ccc(C(=O)O)cc2)cc1)C(=O)O; X1 = CC(=O)N1CCN(c2ccc(C[C@H](N[*:1])C(=O)[*:2])cn2)CC1; 1Nal(3S-Me) = C[C@@H](c1cccc2ccccc12)[C@H](N)C(=O)O; X8 = O=C([C@H](CCc1cccc(C(F)(F)F)c1)N[*:1])[*:2]; Phe(4-COOH) = N[C@@H](Cc1ccc(C(=O)O)cc1)C(=O)O; Trp(7-F) = N[C@@H](Cc1c[nH]c2c(F)cccc12)C(=O)O; h3Pal(5-CN) = N#Cc1cncc(CC[C@H](N)C(=O)O)c1; Pro(4R-NH2) = N[C@H]1CN[C@H](C(=O)O)C1; 1Nal = N[C@@H](Cc1cccc2ccccc12)C(=O)O; AEF = NCCOc1ccc(C[C@H](N)C(=O)O)cc1; hTyr = N[C@@H](CCc1ccc(O)cc1)C(=O)O; hCha = N[C@@H](CCC1CCCCC1)C(=O)O; tBuAla = CC(C)(C)C[C@H](N)C(=O)O; 3Pal = N[C@@H](Cc1cccnc1)C(=O)O; 4Pal = N[C@@H](Cc1ccncc1)C(=O)O; dDab = NCC[C@@H](N)C(=O)O; dNMeA = CN[C@H](C)C(=O)O; Dap = NC[C@H](N)C(=O)O; Aib = CC(C)(N)C(=O)O

The compounds below were run against T1, Recombinant human IL-1β (Homo sapiens, UniProt P01584) (assay: IL-6 assay in MRC5 cells: inhibition of IL-1β induced IL-6 secretion (AlphaLISA)). Settings: inhibition of IL-1β induced IL-6 secretion in MRC5 cells; IL-1β pre-incubated 1 hour with compound; read-out: MRC5 IC50.
T1 construct: purchased BioLegend 579404
T1 sequence (P01584 117-269): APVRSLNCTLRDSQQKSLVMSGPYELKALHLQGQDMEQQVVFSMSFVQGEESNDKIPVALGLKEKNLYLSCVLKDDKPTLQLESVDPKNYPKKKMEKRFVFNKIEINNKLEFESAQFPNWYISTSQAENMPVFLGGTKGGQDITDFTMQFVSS
Assay type: cell-based
Procedure, shortened: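 IL-1β at 2×EC80 in seeding medium (EMEM, 0.025% BSA) preincubated 1 h at ambient temperature with compound, then 3000 MRC5 cells/well added and incubated overnight at 37 °C, 5% CO2. IL-6 in conditioned medium quantified by AlphaLISA; IC50 from 4-parameter logistic fit.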

SMILES	IC50 [nM]
CC(=O)NCCOc1ccc(C[C@@H]2NC(=O)[C@H](CCc3cccc(C(F)(F)F)c3)NC(=O)[C@@H](C)NC(=O)[C@H](CO)NC(=O)[C@H](Cc3ccncc3)NC(=O)[C@H](Cc3ccc(-c4ccc(C(=O)O)cc4)cc3)NC(=O)CNC(=O)[C@@H](C)N(C)C(=O)[C@H](CC(=O)O)NC(=O)[C@H]([C@@H](C)c3cccc4ccccc34)NC(=O)[C@@H]3C[C@@H](N)CN3C(=O)CNC(=O)[C@H](Cc3ccc(C(=O)O)cc3)NC(=O)[C@H](Cc3c[nH]c4ccccc34)NC2=O)cc1 [Example 104] (cyclo([AEF](Ac)W[Phe(4-COOH)]G[Pro(4R-NH2)][1Nal(3S-Me)]D[dNMeA]G[Bip(4'-COOH)][4Pal]S[dA][X8]))	0.041
CC(C)C[C@@H]1NC(=O)[C@H](CCCCN)NC(=O)[C@H](Cc2ccc(-c3ccc(C(=O)O)cc3)cc2)NC(=O)CNC(=O)[C@@H](C)N(C)C(=O)[C@H](CC(=O)O)NC(=O)[C@H]([C@@H](C)c2c[nH]c3cccc(F)c23)NC(=O)[C@@H]2C[C@@H](N)CN2C(=O)CNC(=O)[C@H](Cc2ccc(C(=O)O)cc2)NC(=O)[C@H](Cc2c[nH]c3ccccc23)NC(=O)[C@H](Cc2ccc(-c3ccc(C(=O)O)cc3)cc2)NC(=O)[C@H](CCc2ccc(O)cc2)NC(=O)[C@@H](CO)NC1=O [Example 69] (cyclo([Bip(4'-COOH)]W[Phe(4-COOH)]G[Pro(4R-NH2)][Trp(βS-Me,4-F)]D[dNMeA]G[Bip(4'-COOH)]KL[dS][hTyr]))	0.334
CC(=O)N1CCN(c2ccc(C[C@@H]3NC(=O)[C@H](CCc4cncc(C#N)c4)NC(=O)[C@@H](C)NC(=O)[C@H](CN)NC(=O)[C@H](Cc4ccncc4)NC(=O)[C@H](Cc4ccc(-c5ccc(C(=O)O)cc5)cc4)NC(=O)CNC(=O)[C@@H](C)N(C)C(=O)[C@H](CC(=O)O)NC(=O)[C@H]([C@@H](C)c4cccc5ccccc45)NC(=O)[C@@H]4C[C@@H](N)CN4C(=O)CNC(=O)[C@H](Cc4ccc(C(=O)O)cc4)NC(=O)[C@H](Cc4c[nH]c5ccccc45)NC3=O)cn2)CC1 [Example 1] (cyclo([X1]W[Phe(4-COOH)]G[Pro(4R-NH2)][1Nal(3S-Me)]D[dNMeA]G[Bip(4'-COOH)][4Pal][Dap][dA][h3Pal(5-CN)]))	0.0365
C[C@@H]1C(=O)NCC(=O)N[C@@H](Cc2ccc(-c3ccc(C(=O)O)cc3)cc2)C(=O)N[C@@H](CN)C(=O)N[C@@H](CO)C(=O)N[C@H](C)C(=O)N[C@@H](CCc2ccc(O)cc2)C(=O)N[C@@H](Cc2ccc(-c3ccc(C(=O)O)cc3)cc2)C(=O)N[C@@H](Cc2c[nH]c3ccccc23)C(=O)N[C@@H](Cc2ccc(C(=O)O)cc2)C(=O)NCC(=O)N2C[C@H](N)C[C@H]2C(=O)N[C@@H]([C@@H](C)c2c[nH]c3cccc(Cl)c23)C(=O)N[C@@H](CC(=O)O)C(=O)N1C [Example 41] (cyclo([Bip(4'-COOH)]W[Phe(4-COOH)]G[Pro(4R-NH2)][Trp(4-Cl)(βS-Me)]D[dNMeA]G[Bip(4'-COOH)][Dap]S[dA][hTyr]))	0.469
C[C@@H]1C(=O)NCC(=O)N[C@@H](Cc2ccc(-c3ccc(C(=O)O)cc3)cc2)C(=O)N[C@@H](Cc2cccnc2)C(=O)N[C@@H](CO)C(=O)N[C@H](C)C(=O)N[C@@H](CCc2ccc(O)cc2)C(=O)N[C@@H](Cc2ccc(-c3ccc(C(=O)O)cc3)cc2)C(=O)N[C@@H](Cc2c[nH]c3ccccc23)C(=O)N[C@@H](Cc2ccc(C(=O)O)cc2)C(=O)NCC(=O)N2C[C@H](N)C[C@H]2C(=O)N[C@@H]([C@@H](C)c2c[nH]c3cccc(Cl)c23)C(=O)N[C@@H](CC(=O)O)C(=O)N1C [Example 38] (cyclo([Bip(4'-COOH)]W[Phe(4-COOH)]G[Pro(4R-NH2)][Trp(4-Cl)(βS-Me)]D[dNMeA]G[Bip(4'-COOH)][3Pal]S[dA][hTyr]))	0.217
CC(C)C[C@@H]1NC(=O)[C@H](Cc2cccc3ccccc23)NC(=O)[C@H](Cc2ccc(-c3ccc(C(=O)O)cc3)cc2)NC(=O)CNC(=O)[C@@H](C)N(C)C(=O)[C@H](C)NC(=O)[C@H]([C@@H](C)c2c[nH]c3cccc(Cl)c23)NC(=O)[C@@H]2C[C@@H](N)CN2C(=O)CNC(=O)[C@H](Cc2ccc(C(=O)O)cc2)NC(=O)[C@H](Cc2c[nH]c3ccccc23)NC(=O)[C@H](Cc2ccc(-c3ccc(C(=O)O)cc3)cc2)NC(=O)CNC(=O)C(C)(C)NC1=O [Example 33] (cyclo([Bip(4'-COOH)]W[Phe(4-COOH)]G[Pro(4R-NH2)][Trp(4-Cl)(βS-Me)]A[dNMeA]G[Bip(4'-COOH)][1Nal]L[Aib]G))	0.544
C[C@@H]1C(=O)NCC(=O)N[C@@H](Cc2ccc(-c3ccc(C(=O)O)cc3)cc2)C(=O)N[C@@H](CC2CCNCC2)C(=O)N[C@@H](CO)C(=O)N[C@H](C)C(=O)N[C@@H](CCc2ccc(O)cc2)C(=O)N[C@@H](Cc2ccc(-c3ccc(C(=O)O)cc3)cc2)C(=O)N[C@@H](Cc2c[nH]c3ccccc23)C(=O)N[C@@H](Cc2ccc(C(=O)O)cc2)C(=O)NCC(=O)N2C[C@H](N)C[C@H]2C(=O)N[C@@H]([C@@H](C)c2c[nH]c3cccc(Cl)c23)C(=O)N[C@@H](CC(=O)O)C(=O)N1C [Example 40] (cyclo([Bip(4'-COOH)]W[Phe(4-COOH)]G[Pro(4R-NH2)][Trp(4-Cl)(βS-Me)]D[dNMeA]G[Bip(4'-COOH)][Ala(piperidin-4-yl)]S[dA][hTyr]))	0.508
CC(C)C[C@@H]1NC(=O)[C@H](CCCCN)NC(=O)[C@H](Cc2ccc(-c3ccc(C(=O)O)cc3)cc2)NC(=O)CNC(=O)[C@@H](C)N(C)C(=O)[C@H](CC(=O)O)NC(=O)[C@H]([C@@H](C)c2c[nH]c3cccc(F)c23)NC(=O)[C@@H]2C[C@@H](N)CN2C(=O)CNC(=O)[C@H](Cc2ccc(C(=O)O)cc2)NC(=O)[C@H](Cc2c[nH]c3ccccc23)NC(=O)[C@H](Cc2ccc(-c3ccc(C(=O)O)cc3)cc2)NC(=O)[C@H](CCc2ccc(O)cc2)NC(=O)[C@@H](CCN)NC1=O [Example 68] (cyclo([Bip(4'-COOH)]W[Phe(4-COOH)]G[Pro(4R-NH2)][Trp(βS-Me,4-F)]D[dNMeA]G[Bip(4'-COOH)]KL[dDab][hTyr]))	0.296

Same assay, conditions: inhibition of IL-1β induced IL-6 secretion in MRC5 cells; read-out: MRC5 IC50

SMILES	IC50 [nM]
CC(=O)N1CCN(c2ccc(C[C@@H]3NC(=O)[C@H](CCc4cncc(C#N)c4)NC(=O)[C@@H](C)NC(=O)[C@H](CC(C)(C)C)NC(=O)[C@H](CCCCN)NC(=O)[C@H](Cc4ccc(-c5ccc(C(=O)O)cc5)cc4)NC(=O)CNC(=O)[C@@H](C)N(C)C(=O)[C@H](CC(=O)O)NC(=O)[C@H]([C@@H](C)c4cccc5ccccc45)NC(=O)[C@@H]4C[C@@H](N)CN4C(=O)CNC(=O)[C@H](Cc4ccc(C(=O)O)cc4)NC(=O)[C@H](Cc4c[nH]c5ccccc45)NC3=O)cn2)CC1 [Example 181] (cyclo([X1]W[Phe(4-COOH)]G[Pro(4R-NH2)][1Nal(3S-Me)]D[dNMeA]G[Bip(4'-COOH)]K[tBuAla][dA][h3Pal(5-CN)]))	0.015
CC(=O)N1CCN(c2ccc(C[C@@H]3NC(=O)[C@H](CCc4cncc(C#N)c4)NC(=O)[C@@H](CC(C)C)NC(=O)[C@H](CC(C)C)NC(=O)[C@H](CCCCN)NC(=O)[C@H](Cc4ccc(-c5ccc(C(=O)O)cc5)cc4)NC(=O)CNC(=O)[C@@H](C)N(C)C(=O)[C@H](CC(=O)O)NC(=O)[C@H]([C@@H](C)c4cccc5ccccc45)NC(=O)[C@@H]4C[C@@H](N)CN4C(=O)CNC(=O)[C@H](Cc4ccc(C(=O)O)cc4)NC(=O)[C@H](Cc4c[nH]c5ccccc45)NC3=O)cn2)CC1 [Example 178] (cyclo([X1]W[Phe(4-COOH)]G[Pro(4R-NH2)][1Nal(3S-Me)]D[dNMeA]G[Bip(4'-COOH)]KL[dL][h3Pal(5-CN)]))	0.019
CC(C)C[C@@H]1NC(=O)[C@H](CCCCN)NC(=O)[C@H](Cc2ccc(-c3ccc(C(=O)O)cc3)cc2)NC(=O)CNC(=O)[C@@H](C)N(C)C(=O)[C@H](CC(=O)O)NC(=O)[C@H]([C@@H](C)c2c[nH]c3cccc(F)c23)NC(=O)[C@@H]2C[C@@H](N)CN2C(=O)CNC(=O)[C@H](Cc2ccc(C(=O)O)cc2)NC(=O)[C@H](Cc2c[nH]c3c(F)cccc23)NC(=O)[C@H](Cc2ccc(-c3ccc(C(=O)O)cc3)cc2)NC(=O)[C@H](CCc2ccc(O)cc2)NC(=O)[C@@H](C)NC1=O [Example 185] (cyclo([Bip(4'-COOH)][Trp(7-F)][Phe(4-COOH)]G[Pro(4R-NH2)][Trp(βS-Me,4-F)]D[dNMeA]G[Bip(4'-COOH)]KL[dA][hTyr]))	0.024
CC(=O)NCCOc1ccc(C[C@@H]2NC(=O)[C@H](CCc3ccc(O)cc3)NC(=O)[C@@H](CCCCN)NC(=O)[C@H](CC(C)C)NC(=O)[C@H](Cc3c[nH]c4ccccc34)NC(=O)[C@H](Cc3ccc(-c4ccc(C(=O)O)cc4)cc3)NC(=O)CNC(=O)[C@@H](C)N(C)C(=O)[C@H](CC(=O)O)NC(=O)[C@H]([C@@H](C)c3c[nH]c4cccc(F)c34)NC(=O)[C@@H]3C[C@@H](N)CN3C(=O)CNC(=O)[C@H](Cc3ccc(C(=O)O)cc3)NC(=O)[C@H](Cc3c[nH]c4ccccc34)NC2=O)cc1 [Example 169] (cyclo([AEF](Ac)W[Phe(4-COOH)]G[Pro(4R-NH2)][Trp(βS-Me,4-F)]D[dNMeA]G[Bip(4'-COOH)]WL[dK][hTyr]))	0.112
CC(=O)N1CCN(c2ccc(C[C@@H]3NC(=O)[C@H](CCC4CCCCC4)NC(=O)[C@@H](CCN)NC(=O)CNC(=O)[C@H](Cc4ccncc4)NC(=O)[C@H](Cc4ccc(-c5ccc(C(=O)O)cc5)cc4)NC(=O)CNC(=O)[C@@H](C)N(C)C(=O)[C@H](CC(=O)O)NC(=O)[C@H]([C@@H](C)c4cccc5ccccc45)NC(=O)[C@@H]4C[C@@H](N)CN4C(=O)CNC(=O)[C@H](Cc4ccc(C(=O)O)cc4)NC(=O)[C@H](Cc4c[nH]c5ccccc45)NC3=O)cc2)CC1 [Example 201] (cyclo([Phe(4-(4-Ac-piperazinyl))]W[Phe(4-COOH)]G[Pro(4R-NH2)][1Nal(3S-Me)]D[dNMeA]G[Bip(4'-COOH)][4Pal]G[dDab][hCha]))	0.03
